Counter-ions that a name gives are not always drawn. Like-named read-outs stand apart in the source and are kept apart here.
Columns and labels:
[1] = type: physicochemical
Experimental: The suspensions were filtered through 0.2 or 0.45 microm filters prior to HPLC analysis. Some filtrates were diluted with MeOH prior to the HPLC analysis.

[2] = MP470.HCl in T/C with or without Soluplus in SIF; type: physicochemical; details: Soluplus (12.3%) added to MP470.HCl in T/C, versus control without Soluplus; SIF 37° C., 1 mg/mL MP470 (total); FIG. 4
Experimental: A sample of the formulation was mixed with SIF solution pre-warmed at 37° C. to make a 1 mg/mL MP470 (total) mix.

solubility ([1]; Capryol 90, oil or lipid, thermodynamic from solid, solvent Capryol 90, room temperature, >24 hours, read-out: Solubility): 100 µg/mL
solubility ([1]; Cremophor EL, organic solvent or mixture, thermodynamic from solid, solvent Cremophor EL, room temperature, >24 hours, read-out: Solubility): 7000 µg/mL
solubility ([1]; DMF, organic solvent or mixture, thermodynamic from solid, solvent DMF, room temperature, >24 hours, read-out: Solubility): 10000 µg/mL
solubility ([1]; Labrafac CC, oil or lipid, thermodynamic from solid, solvent Labrafac CC, room temperature, >24 hours, read-out: Solubility): 50 µg/mL
solubility ([1]; Labrafil M1944CS, oil or lipid, thermodynamic from solid, solvent Labrafil M1944CS, room temperature, >24 hours, read-out: Solubility): 300 µg/mL
solubility ([1]; Lauroglycol 90, oil or lipid, thermodynamic from solid, solvent Lauroglycol 90, room temperature, >24 hours, read-out: Solubility): 60 µg/mL
solubility ([1]; Maisine 35-1, oil or lipid, thermodynamic from solid, solvent Maisine 35-1, room temperature, >24 hours, read-out: Solubility): 1400 µg/mL
solubility ([1]; Miglyol 812N, oil or lipid, thermodynamic from solid, solvent Miglyol 812N, room temperature, >24 hours, read-out: Solubility): 30 µg/mL
solubility ([1]; Miglyol 829, oil or lipid, thermodynamic from solid, solvent Miglyol 829, room temperature, >24 hours, read-out: Solubility): 100 µg/mL
solubility ([1]; Miglyol 840, oil or lipid, thermodynamic from solid, solvent Miglyol 840, room temperature, >24 hours, read-out: Solubility): 40 µg/mL
solubility ([1]; Peceol, oil or lipid, thermodynamic from solid, solvent Peceol, room temperature, >24 hours, read-out: Solubility): 200 µg/mL
solubility ([1]; Solutol HS 15, aqueous with cosolvent or surfactant or cyclodextrin, thermodynamic from solid, solvent Solutol HS 15, estimated by diluting the mixture in water 1/100 and then assaying the dilution, read-out: Solubility): 6000 µg/mL
solubility ([1]; TPGS, aqueous with cosolvent or surfactant or cyclodextrin, thermodynamic from solid, solvent TPGS, estimated by diluting the mixture in water 1/100 and then assaying the dilution, read-out: Solubility): 7000 µg/mL
solubility ([1]; benzyl acetate, organic solvent or mixture, thermodynamic from solid, solvent Benzyl acetate, room temperature, >24 hours, read-out: Solubility): 400 µg/mL
solubility ([1]; benzyl alcohol, organic solvent or mixture, thermodynamic from solid, solvent Benzyl alcohol, room temperature, >24 hours, read-out: Solubility): 48000 µg/mL
solubility ([1]; canola oil, oil or lipid, thermodynamic from solid, solvent Canola oil, room temperature, >24 hours, read-out: Solubility): 10 µg/mL
solubility ([1]; castor oil, oil or lipid, thermodynamic from solid, solvent Castor oil, room temperature, >24 hours, read-out: Solubility): 200 µg/mL
solubility ([1]; clove oil, oil or lipid, thermodynamic from solid, solvent Clove oil, room temperature, >24 hours, read-out: Solubility): 6700 µg/mL
solubility ([1]; corn oil, oil or lipid, thermodynamic from solid, solvent Corn oil, room temperature, >24 hours, read-out: Solubility): 10 µg/mL
solubility ([1]; dichloromethane, organic solvent or mixture, thermodynamic from solid, solvent Dichloromethane, room temperature, >24 hours, read-out: Solubility): 400 µg/mL
solubility ([1]; ethyl acetate, organic solvent or mixture, thermodynamic from solid, solvent Ethyl acetate, room temperature, >24 hours, read-out: Solubility): 50 µg/mL
solubility ([1]; peanut oil, oil or lipid, thermodynamic from solid, solvent Peanut oil, room temperature, >24 hours, read-out: Solubility): 10 µg/mL
solubility ([1]; sesame oil, oil or lipid, thermodynamic from solid, solvent Sesame oil, room temperature, >24 hours, read-out: Solubility): 30 µg/mL
solubility ([1]; solvent Acetic acid, room temperature, >24 hours, HCl): 3000 µg/mL
solubility ([1]; solvent Acetone, room temperature, >24 hours, HCl): 200 µg/mL
solubility ([1]; solvent DMA, room temperature, >24 hours, HCl): 13000 µg/mL
solubility ([1]; solvent DMSO, room temperature, >24 hours, HCl): 18000 µg/mL
solubility ([1]; solvent Glycerin, room temperature, >24 hours, HCl): 4000 µg/mL
solubility ([1]; solvent Labrasol, room temperature, >24 hours, HCl): 3000 µg/mL
solubility ([1]; solvent Methanol, room temperature, >24 hours, HCl): 3000 µg/mL
solubility ([1]; solvent NMP, room temperature, >24 hours, HCl): 40000 to 80000 µg/mL
solubility ([1]; solvent PEG400, room temperature, >24 hours, HCl): 2000 µg/mL
solubility ([1]; solvent Phosal 50 PG, room temperature, >24 hours, HCl): 15000 µg/mL
solubility ([1]; solvent Propylene glycol, room temperature, >24 hours, HCl): 4000 µg/mL
solubility ([1]; solvent Triacetin, room temperature, >24 hours, HCl): 800 µg/mL
solubility ([1]; solvent Tween 20, room temperature, >24 hours, HCl): 17000 µg/mL
solubility ([1]; solvent Tween 80, room temperature, >24 hours, HCl): 4500 µg/mL
solubility ([1]; tocopherol, oil or lipid, thermodynamic from solid, solvent Tocopherol, room temperature, >24 hours, read-out: Solubility): 800 µg/mL
MP470 solubility enhancement [2]: ~10 fold
Compound: S=C(NCc1ccc2c(c1)OCO2)N1CCN(c2ncnc3c2oc2ccccc23)CC1 [MP470.HCl, amuvatinib HCl]

— patent US20170360791A1, “PHARMACEUTICAL COMPOSITIONS FOR INCREASING THE BIOAVAILABILITY OF POORLY SOLUBLE DRUGS” (ASTEX PHARMACEUTICALS, INC., priority 2014, published 2017)
